Legend:
MDAMB231 lung metastasis = assay: in vivo lung metastasis of luciferase-tagged MDAMB231, IVIS imaging; design: species or system SCID-beige mice; conditions: siRNA in cationic liposomes twice weekly; for lung metastasis (animals with metastasis / animals), IVIS imaging: week six; for luminescence (luciferase analysis): p<0.05
Experimental: 3 million cells MDAMB231 cancer cells, stably transfected with luciferase, were injected in the mammary fat pad of SCID-beige mice and were randomized into 3 groups: (1) vehicle+scrambled siRNA, (2) vehicle+MLF2 siRNA, and (3) vehicle+RPL39 siRNA, and treated with siRNA packaged liposomes twice weekly for 6 weeks. The mice were injected with D-luciferin every week for 6 weeks to determine lung metastases using IVIS imaging (Perkin Elmer). The primary tumors were removed by week 5 to continue this study without increasing the primary tumor burden to 10% of body weight.
To assess the effects of RPL39 and MLF2 siRNA on lung metastasis, SCID-Beige mice were injected with luciferase-tagged MDAMB231 cells and treated with siRNA against RPL39 or MLF2 packaged in cationic liposomes, twice weekly simultaneously, and then sacrificed at week six.

MDAMB231 = assay: in vitro MSFE with packaged siRNA; assay type: cell-based, human; conditions: Day 8, p<0.05
Source text: FIG. 7A, FIG. 7B, and FIG. 7C show confirmation of BCSC target genes and comparison of changes in mammosphere formation efficiency. […] Data analyzed by one-way ANOVA and plotted as mean±SEM for n=6 replicates; *p<0.05;
The siRNA sequences of two candidate genes RPL39 and MLF2 were packaged in nanoliposomes and the effects on MSFE determined in vitro, as described above, using packaged siRNA instead of lentiviral shRNA.

SUM159 xenografts = assay: short-term in vivo siRNA (multistage particle) treatment, SUM159 xenograft; design: species or system SCID-Beige mice; conditions: for tumor volume: SUM159; for secondary MSFE: SUM159 xenograft cells, tumors collected after two weeks; for Aldefluor levels: SUM159 xenografts, reduction not statistically significant
Experimental: FIG. 9A, FIG. 9B, FIG. 9C, and FIG. 9D show short-term, in vivo treatment in siRNA SUM159 xenografts. Triple-negative breast cancer cell line SUM159 was injected into the mammary fat pad of SCID beige mice (n=9). These tumors were randomized into six groups: 1) vehicle+scrambled siRNA (15 μg, i.v.); 2) vehicle+RPL39 siRNA 15 μg (i.v.); 3) vehicle+MLF2 siRNA (15 μg (i.v.); 4) docetaxel (20 mg/kg, i.p.)+scrambled siRNA 15 μg (i.v.): 5) docetaxel (20 mg/kg, i.p.)+RPL39 siRNA 15 ltg (i.v.), and 6) docetaxel (20 mg/kg, i.p.)+MLF2 siRNA 15 μg (i.v.). […] Data were analyzed by one-way ANOVA, and plotted as mean±SEM for n=9 replicates; *p<0.05;
(§1) The effect of MLF2 and RPL39 using siRNA packaged in multistage nanoparticles in two different triple negative models were studied. SUM159 and a patient-derived human cancer xenograft (BCM2665) from a primary human breast cancer transplanted in SCID-Beige mice, the test group had 54 mice per xenograft line, and 9 mice per treatment arm. When tumor sizes reached 150 to 300 mm^3, mice were divided into six groups: (1) vehicle-treated, (2) chemotherapy on day 0 with one dose of docetaxel 20 mg/kg by intraperitoneal (i.p.) injection. (3) siRNA against MLF2 packaged in nanoparticles (single injection intravenous (i.v.) on Day 1), (4) combination treatment with docetaxel (20 mg/kg i.p. on Day 1) and siRNA against MLF2 (single injection i.v. on Day 1), (5) siRNA against RPL39 packaged in nanoparticles (single injection i.v. on Day 1), and (6) combination treatment with docetaxel (20 mg/kg i.p. on Day 1) and siRNA against inhibitor […] (single injection iv. on Day 1). The same dose (15 μg siRNA) was used in all experiments. Animals were sacrificed on Day 14. The tumors were harvested and analyzed for downstream effects on BCSC self-renewal using FACS analysis, and MSFE.
(§2) The fraction of BCSCs in the xenograft tumors from the six treatment groups were processed by mincing and digesting the tumors using collagenase type III, for 3 hrs at 37° C. in order to dissociate the tumors into single cells. Changes in CD44+/CD24/Lin− and Aldefluor® were analyzed as described previously (Li et al., 2008). Briefly, cells were stained with primary antibodies antiCD44 labeled APC (dilution 1:10. BD Biosciences), anti-CD24-labeled FITC (dilution 1:10, BD Biosciences), and additionally with H2KD-labeled PE to eliminate all mouse, lineage-positive cells. The cells were incubated in HBSS (Hanks Balanced Salt Solution, GIBCO) for 15 min on ice with 2% FBS for the antibodies and 45 min for Aldefluor® reagent. Following incubation, cells were washed once with HBSS and re-suspended in HBSS supplemented with 2% FBS. […] (PI) was added to the cells for live/dead gating prior to FACS analysis.
(§3) Mammosphere formation efficiency, the in vitro assay for stem cell self-renewal, was performed as described previously (Dontu et al., 2003; Dontu et al., 2005; Li et al., 2008). Single cells were plated in ultra-low attachment plates (Corning, Acton, Mass., USA) at the density 40,000 viable cells/mL for BCM2665 in primary culture, and at the density 10,000 viable cells/mL in secondary culture. For mammosphere culture, cells were grown in serum-free mammary epithelial basal medium (MEGM) (Lonza, Inc.) supplemented with B27 (Invitrogen), 20 ng/mL EGF (BD Biosciences), and 1% heparin (Sigma Chemical Co.) in a humidified incubator ([…]: 95% air, 37° C. for 14 days, as previously described (Li et al., 2008).

BCM2665 xenografts = assay: short-term in vivo siRNA (multistage particle) treatment, BCM2665 patient-derived xenograft; design: species or system SCID-Beige mice; conditions: for tumor volume: BCM2665; for secondary MSFE: BCM2665 xenograft cells, tumors collected after two weeks; for Aldefluor levels: BCM2665 xenografts, reduction not statistically significant
Experimental: FIG. 10A, FIG. 10B, FIG. 10C, and FIG. 10D illustrate the short-term, in vivo treatment of siRNA in triple-negative, patient-derived human cancer in a murine model xenograft, BCM2665. BCM2665 cells were transplanted into cleared mammary fat pad of SCID beige mice (n=9). These tumors were randomized into the same six groups as stated in the preceding figure, and treated in a manner identical to the SUM159 xenografts. […] RPL39 and MLF2 siRNA respectively. […] Data were analyzed by one-way ANOVA, and are plotted as mean±SEM for n=9 replicates; *p<0.05;
as §1, §2, §3

[1] = siRNA alone (15 μg i.v., MSV) vs vehicle
[2] = siRNA+chemotherapy vs standard-dose docetaxel (20 mg/kg)

Substance	lung metastasis (animals with metastasis / animals), IVIS imaging (MDAMB231 lung metastasis)	luminescence (luciferase analysis) (MDAMB231 lung metastasis)	secondary MSFE (MDAMB231)	tumor volume (SUM159 xenografts; [1])	tumor volume (SUM159 xenografts; [2])	secondary MSFE (SUM159 xenografts)	Aldefluor levels (SUM159 xenografts)	tumor volume (BCM2665 xenografts; [1])	tumor volume (BCM2665 xenografts; [2])	secondary MSFE (BCM2665 xenografts)	Aldefluor levels (BCM2665 xenografts)
MLF2 siRNA: siRNA against myeloid leukemia factor 2; sense SEQ ID NO: 3 CCCTGATGGATCCCTTTGCTAT, antisense SEQ ID NO: 19 ATAGCAAAGGGATCCATCAGGA (packaged in nanoliposomes, chemistry not given here, further chemistry not given here)	8/12	significant reduction	significantly reduced	Significant reduction	Similarly, observations were obtained	Significant decrease	reduction	Significant reduction	Similarly, observations were obtained	Significant decrease	reduction
RPL39 siRNA: siRNA against ribosomal protein L39-like; sense SEQ ID NO: 15 ACGATTCCTGGCCAAGAAACAA, antisense SEQ ID NO: 31 TTGTTTCTTGGCCAGGAATCGC (listed as DNA, chemistry not fully specified)	5/11	significant reduction	significantly reduced	Significant reduction	Similarly, observations were obtained	Significant decrease	reduction	Significant reduction	Similarly, observations were obtained	Significant decrease	reduction

From patent publication US9546367B2, “siRNA compositions and methods for inhibiting gene expression in tumor initiating cells of breast cancer” (priority 2011, dated 2017)
